Results reported in patent publication US20190233884A1 (University of Southern California, priority 2016, published 2019).
Several values for one entry are separate records, joined by “and”; a condition that tells them apart may be missing. Equal values may be shown once.

Test system: patients with refractory metastatic colorectal cancer (mCRC)
Test: PFS, OS and disease control in the control cohort of refractory mCRC patients receiving regorafenib (n=52, Italy), by baseline characteristics and SNP genotype
Format: in vivo, human
Procedure: All patients underwent the treatment in salvage-line setting.
(§1) Patients in the control group received 160 mg regorafenib (Bayer, Leverkusen, Germany) once daily from day 1 to 21 every 4 weeks. Doses were adjusted based on haematological and non-haematological adverse events at the treating physician's discretion in accordance with the manufacturer's recommendations. The analyses were approved by the University of Southern California (USC) Institutional Review Board of Medical Sciences and conducted at the USC/Norris Comprehensive Cancer Center in accordance with the Declaration of Helsinki and Good Clinical Practice Guidelines.
(§2) Genomic DNA was extracted from peripheral whole blood in patients of all cohorts using the QIAmp Kit (Qiagen, Valencia, Calif., USA) according to the manufacturer's protocol (www.qiagen.com). The candidate SNPs were genotyped using PCR-based direct DNA sequence analysis by ABI 3100A Capillary Genetic Analyzer and Sequencing Scanner v1.0 (Applied Biosystems). Amplification of extracted DNA was carried out using both forward and reverse primers for each gene polymorphism as shown in Table 1. […] The investigators analyzing SNPs were blinded to the clinical data of the study patients.
The primary endpoint in this study was progression-free survival (PFS), and the secondary endpoints were overall survival (OS) and disease control rate (DCR). PFS was calculated from the date of starting treatment to the first observation of disease progression or death from any cause. If a patient had no disease progression or death, PFS was censored at the date of last follow up. OS was calculated from the date of starting treatment until the date of death from any cause or the date of the last follow-up, at which point OS was censored. The disease control rate (DCR) was defined as the proportion of patients who achieved a stable disease (SD) or […] according to RECISTv1.1. Chi-square test was used to examine the difference in baseline patient characteristics among the three cohorts. Allelic distribution of all SNPs by ethnicity for deviation from Hardy-Weinberg equilibrium and the allelic frequencies of SNPs were tested using the Chi-square tests with one degree of freedom. The associations between candidate SNPs and disease control, and toxicities were examined using contingency tables and Fisher's exact test. The associations of SNPs with PFS and OS were analysed using Kaplan-Meier curves and the log-rank test. Because the true mode of inheritance of candidate SNPs was not established yet, a codominant or dominant genetic model if appropriate was considered.
All patients underwent the treatment in salvage-line setting. […] In all patients, adverse events were graded according to the Common Terminology Criteria for Adverse Events, version 4.0.
as §1, with “events at treating physician's” for “events at the treating physician's”
as §2, with “tested” for “genotyped”, “Biosystems).” for “Biosystems). Amplification of extracted DNA was carried out using both forward and reverse primers for each gene polymorphism as shown in Table 1.”, “data.” for “data of the study patients.”
The primary endpoint in this study was progression-free survival (PFS), and the secondary endpoints were overall survival (OS) and disease control rate (DCR). […]

[1] = control cohort, OCT2 rs316019 C/A and A/A combined
[2] = control cohort, OCT2 rs316019 C/A and A/A combined vs C/C
[3] = control cohort, OCT2 rs316019 C/C
[4] = control cohort, adjusted for ECOG performance status and number of metastases
[5] = control cohort, hENT1 rs760370 A/A
[6] = control cohort, hENT1 rs760370 A/G
[7] = control cohort, hENT1 rs760370 A/G vs A/A
[8] = control cohort, hENT1 rs760370 Any G
[9] = control cohort, hENT1 rs760370 Any G vs A/A
[10] = control cohort, hENT1 rs760370 G/G
[11] = control cohort, hENT1 rs760370 G/G vs A/A
[12] = control cohort, hENT rs9394992 C/C
[13] = control cohort, hENT rs9394992 C/T
[14] = control cohort, hENT rs9394992 C/T and T/T combined
[15] = control cohort, hENT rs9394992 C/T and T/T combined vs C/C
[16] = control cohort, hENT rs9394992 T/T

CNC(=O)c1cc(Oc2ccc(NC(=O)Nc3ccc(Cl)c(C(F)(F)F)c3)c(F)c2)ccn1 [regorafenib] was tested, and the “Disease Control Rate SD” value (control cohort, OCT2 rs316019 C/A) was 1 (14%), the “Overall Survival Median, months (95% CI)” value [1] was 5.3 (3.6, 9.6) months and the “Progression-free Survival Median, months (95% CI)” value [1] was 1.8 (1.5, 2.0) months. For the same compound, the “Overall Survival HR (95% CI) multivariate” value [2] was 0.90 (0.39, 2.09), the “Overall Survival HR (95% CI) univariate” value [2] was 0.79 (0.35, 1.75) and the “Progression-free Survival HR (95% CI) multivariate” value [2] was 1.50 (0.62, 3.61). The “Progression-free Survival HR (95% CI) univariate” value [2] was 1.00 (0.44, 2.25), the “Disease Control Rate PD” value [3] was 25 (61%) and the “Disease Control Rate SD” value [3] was 16 (39%). The “Overall Survival Median, months (95% CI)” value [3] was 3.3 (2.6, 7.9) months, the “Progression-free Survival Median, months (95% CI)” value [3] was 2.1 (1.7, 3.2) months and the “Overall Survival HR (95% CI) multivariate” value [4] was 0.80 (0.40, 1.61). The “Progression-free Survival HR (95% CI) multivariate” value [4] was 0.88 (0.45, 1.70), the “Disease Control Rate PD” value [5] was 15 (65%) and 13 (65%) and the “Disease Control Rate SD” value [5] was 7 (35%). For the same compound, the “Overall Survival Median, months (95% CI)” value [5] was 5.9 (4.5, 8.0) months and 5.9 (4.5, 5.0) months, the “Progression-free Survival Median, months (95% CI)” value [5] was 2.1 (1.8, 3.1) months and the “Disease Control Rate PD” value [6] was 11 (61%). The “Disease Control Rate SD” value [6] was 7 (39%), the “Overall Survival Median, months (95% CI)” value [6] was 5.7 (2.0, 8.9) months and the “Progression-free Survival Median, months (95% CI)” value [6] was 1.9 (1.6, 3.9) months. For the same compound, the “Overall Survival HR (95% CI) multivariate” value [7] was 0.95 (0.50, 1.90), the “Overall Survival HR (95% CI) univariate” value [7] was 1.25 (0.67, 2.35) and the “Progression-free Survival HR (95% CI) multivariate” value [7] was 1.08 (0.57, 2.08). The “Progression-free Survival HR (95% CI) univariate” value [7] was 1.26 (0.67, 2.37), the “Disease Control Rate PD” value [8] was 19 (66%) and the “Disease Control Rate SD” value [8] was 10 (34%). The “Overall Survival Median, months (95% CI)” value [8] was 4.1 (2.2, 7.8 ) months, the “Progression-free Survival Median, months (95% CI)” value [8] was 1.8 (1.5, 2.2) months and the “Overall Survival HR (95% CI) multivariate” value [9] was 1.01 (0.55, 1.88). The “Overall Survival HR (95% CI) univariate” value [9] was 1.22 (0.70, 2.13), the “Progression-free Survival HR (95% CI) multivariate” value [9] was 1.15 (0.61, 2.15) and the “Progression-free Survival HR (95% CI) univariate” value [9] was 1.25 (0.71, 2.20). The “Disease Control Rate SD” value [10] was 3 (27%), the “Overall Survival Median, months (95% CI)” value [10] was 2.4 (1.2, 9.1) months and the “PD, patients n (%)” value [10] was 8 (73%). The “Progression-free Survival Median, months (95% CI)” value [10] was 1.4 (0.4, 4.3) months, the “Overall Survival HR (95% CI) multivariate” value [11] was 1.11 (0.48, 2.56) and the “Overall Survival HR (95% CI) univariate” value [11] was 1.17 (0.55, 2.46). The “Progression-free Survival HR (95% CI) multivariate” value [11] was 1.57 (0.57, 4.35), the “Progression-free Survival HR (95% CI) univariate” value [11] was 1.24 (0.59, 2.59) and the “Disease Control Rate PD” value [12] was 14 (70%). The “Disease Control Rate SD” value [12] was 6 (30%), the “Overall Survival Median, months (95% CI)” value [12] was 4.4 (2.6, 6.0) months and the “Progression-free Survival Median, months (95% CI)” value [12] was 2.0 (1.2, 2.7) months. The “Disease Control Rate PD” value [13] was 16 (70%), the “Disease Control Rate SD” value [13] was 7 (30%) and the “Overall Survival Median, months (95% CI)” value [14] was 7.7 (3.7, 8.9) months. For the same compound, the “Progression-free Survival Median, months (95% CI)” value [14] was 1.9 (1.7, 3.9) months, the “Overall Survival HR (95% CI) multivariate” value [15] was 0.64 (0.32, 1.30) and the “Overall Survival HR (95% CI) univariate” value [15] was 0.57 (0.31, 1.05). For the same compound, the “Progression-free Survival HR (95% CI) multivariate” value [15] was 0.85 (0.46, 1.59), the “Progression-free Survival HR (95% CI) univariate” value [15] was 0.75 (0.42, 1.32) and the “Disease Control Rate PD” value [16] was 2 (33%). For the same compound, the “Disease Control Rate SD” value [16] was 4 (67%), the “Progression-free Survival Median, months (95% CI)” value (control cohort, per OCT2 rs316000 genotype (row), OCT2 rs316000 Any A genotype) was 1.8 (1.6, 2.8) months and the “Progression-free Survival Median, months (95% CI)” value (control cohort, per OCT2 rs316000 genotype (row), OCT2 rs316000 G/G genotype) was 2.1 (1.7, 3.1) months. For the same compound, the “Median OS” value (whole control cohort) was 5.3 months and the “Median PFS” value (whole control cohort) was 1.9 months.
